Results on 17 substances are retold here after patent US20110092445A1, “Amyloid ß peptide analogues, oligomers thereof, processes for preparing and composi-tions comprising said analogues or oligomers, and their uses” (Abbott Laboratories, priority 2008, published 2011).

The subject of data set [1] is globulomer-specific antibodies (mAb 5F7, mAb 7C6, rabbit polyclonal antiserum 5599). Put plainly: Direct ELISA, response to globulomer-specific antibodies. In kind it is binding. Conditions: for reactivity of cross-linked oligomers to the globulomer-specific antibodies: after intra-molecular cross-linking, FIGS. 14-16, 18; for change in affinity to the globulomer-specific antibodies upon truncation with thermolysin: after thermolysin truncation versus untruncated oligomer; for display of the globulomer epitope: oligomers before thermolysin truncation, 5F7, 7C6, antiserum 5599. An excerpt:
(§1) Materials: Microtiterplates were Nunc Immuno Plate, Maxi-Sorb Surface, flat bottom, (Catalogue #439454). The conjugate (secondary antibody) was Donkey anti-mouse HRPO conjugate, Jackson Immuno Research, (Catalogue #715-035-150). The HRPO Substrate was 3,3′,5′5′-Tetramethylbenzidine Liquid substrate (TMB), Sigma, (Catalogue #T4444). Non-fat Dry Milk (NFDM), was from BioRad, (Catalogue #170-6404). All other chemicals were from conventional sources.
(§2) Buffers and solutions: PBST buffer: Sigma PBS made with 0.05% Tween 20. PBST with 0.5% BSA was made by dissolving […] BSA in 100 mL PBST. Blocking solution was 3% NFDM in PBST. Conjugate diluent was 1% NFDM in PBST. The coating buffer was 100 mM NaHCO3 pH8.2. The HRPO Stop Solution was 2 M H2SO4.
(§3) Coating the plates: The Aβ globulomer to be tested was diluted to 1.0 μg/mL in coating buffer. 100 μL were added to each well to be coated. Plate was sealed with sealing film and left at 4° C. overnight.
(§4) Plate Blocking: The coating solution was removed from the wells. Each well was optionally washed 2-3× with 150 μL of PBST. 300 μL of blocking solution were added (3% NFDM in PBST). Plate was covered with plate sealing film and incubated for ˜2 hrs at room temperature, with agitation.
(§5) Primary Antibody: The blocking solution was removed from the wells. Each well was optionally washed 2-3× with 150 μL of PBST. 100 μL of primary antibody solutions were added. For the full length N-Met Aβ(1-42) globulomer, solutions of 0.04 to 100 μg/mL of antibody 5F7 were used. The antibody was diluted using PBST with 0.5% BSA. The plate was covered with plate sealing film and incubated for ˜2 to 3 hrs at room temperature with agitation.
Secondary Antibody (HRPO Conjugate): The primary antibody solution was removed from the wells. Each well was washed 2-3× with 150 μL of PBST. 200 μL of secondary antibody (HRPO conjugate) solution diluted 1:5000 in PBST with 1% NFDM were added. The plate was covered with plate sealing film and incubated for ˜1 hr at room temperature with agitation.
Substrate Development: The conjugate solution was removed from the wells. Each well was washed 2-3× with 200 μL of PBST. 100 μL of HRPO substrate solution were added to each well. Color was allowed to develop under observation. It turned blue. The reaction was usually done in 5-10 minutes at room temperature. 50 μL of stop solution were added to each well. The blue color turned yellow. Absorbance at 450 nm was read using a microtiterplate reader within 30 min of addition of the stop solution.

The subject of data set [2] is globulomer-specific monoclonal antibody 5F7. Kind of data set: Direct ELISA, binding of globulomer-specific mAb 5F7 to coated oligomer. As to conditions: FIG. 3A; for binding of the globulomer-specific monoclonal antibody 5F7 (direct ELISA response): N-Met Aβ(1-42) globulomer compared with mutant oligomer. Also noted: species or system murine.
Description: as §1, §2, §3, §4, §5
Secondary Antibody (HRPO Conjugate): The primary antibody solution was removed from the wells. Each well was washed 2-3× with 150 μL of PBST. 200 μL of secondary antibody (HRPO conjugate) solution diluted 1:5000 in PBST with 1% NFDM were added. […]
Substrate Development: The conjugate solution was removed from the wells. […] Absorbance at 450 nm was read using a microtiterplate reader within 30 min of addition of the stop solution.

The conditions of data set [3]: for homogeneity of oligomers in sedimentation velocity experiments / hydrodynamic properties relative to wild-type N-Met Aβ(1-42) (truncated) globulomer: FIG. 5A-5C; for hydrodynamic homogeneity after truncation at residue 20 by thermolysin: presence (FIG. 5B) and absence (FIG. 5C) of 0.05% SDS.
Description: Samples were loaded into standard two-sector cells using sapphire windows. All samples were examined using either a 4-hole or an 8-hole rotor.
Conditions were as follows: temperature: 20° C., rotor speed: 42,000 rpm, interference data was collected, absorbance data was collected at 280 nm in continuous mode with a radial step size of 0.003 cm. One data point was collected per step (no signal averaging). Typically, 200 scans or less were collected over the course of no more than 9 hrs.
A continuous S distribution analysis (C(s) analysis) was done as implemented in Sedfit v8.9 (P. Schuck (2000), “Size distribution analysis of macromolecules by sedimentation velocity ultracentrifugation and Lamm equation modeling”, Biophysical Journal 78:1606-1619) to understand the overall heterogeneity of the samples. Both radial and time independent noise were fit and removed from the data using a maximal entropy algorithm.

Bridges are numbered along the chain shown (N, C = ends). Where no end group is shown, it is not given here. The star is where a group is joined. Acm = CC(=O)NC*

As for “MBS-linked (17K, 34C) N-Met Aβ(1-42) oligomer [example 4w2]”, in data set [1], the “reactivity of cross-linked oligomers to the globulomer-specific antibodies” value (shortened to “reactivity of cross-linked oligomers”) is listed as “still display the appropriate reactivity” and the “change in affinity to the globulomer-specific antibodies upon truncation with thermolysin” value (from here on “change in affinity”) is listed as “expected increase in affinity”. Turning to “Thermolysin truncation of disulfide stabilized (17C, 34C) Aβ(12-42) oligomer [example 5k]”, in data set [1], the “change in affinity” value was “expected increase in affinity”. For the substance “Dissulfide stabilized (17C, 34C) N-Met Aβ(1-42) oligomer [example 2a]”, the “binding of the globulomer-specific monoclonal antibody 5F7 (direct ELISA response)” value in data set [2] is “almost identical”. In addition, the “display of the globulomer-specific epitope” value in data set [2] (mAb 5F7) was “still displays the globulomer-specific epitope”. In data set [3], the “homogeneity of oligomers in sedimentation velocity experiments” value (“homogeneity of oligomers” for short) was “formed homogeneous oligomers” and the “hydrodynamic properties relative to wild-type N-Met Aβ(1-42) (truncated) globulomer” value was “displayed better hydrodynamic properties”. As for “[(17C, 34C) Aβ(16-35)-amide, cyclic] oligomer (KCVFFAEDVGSNKGAIIGCM-NH2; disulfide 2-19; also: oligomer; UniProt P05067 687-706, looked up, variant L17C L34C) [example 4o]”, the “display of the globulomer epitope” value in data set [1] was “displayed the globulomer epitope”. The same measure, in the same setting: with “Aβ(16-35)-amide oligomer (KLVFFAEDVGSNKGAIIGLM-NH2; also: oligomer; UniProt P05067 687-706, looked up, fragment) [example 3m]” the entry was “not able to form oligomers that displayed the globulomer epitope”. As for “N-Met Aβ(1-42) globulomer [reference compound]”, in data set [2], the “binding of the globulomer-specific monoclonal antibody 5F7 (direct ELISA response)” value was “almost identical”. Also, in data set [3], the “homogeneity of oligomers” value is “formed homogeneous oligomers” and the “hydrodynamic homogeneity after truncation at residue 20 by thermolysin” value is on record as “too heterogeneous to be examined”. Turning to “Thermolysin truncation of disulfide stabilized (17C, 34C) N-Met Aβ(1-42) oligomer [example 5y]”, in data set [3], the “homogeneity of oligomers” value is recorded as “formed homogeneous oligomers”, the “hydrodynamic properties relative to wild-type N-Met Aβ(1-42) (truncated) globulomer” value was “displayed better hydrodynamic properties” and the “hydrodynamic homogeneity after truncation at residue 20 by thermolysin” value is “remains significantly more hydrodynamically homogeneous”. In the case of “Thermolysin truncation of disulfide stabilized (17C, 34C) Aβ(16-42) oligomer [example 5s]”, in data set [1], the “change in affinity” value is recorded as “expected increase in affinity”.

“(17K, 34E) N-Met Aβ(1-42) oligomer [example 3x]”: the “display of the globulomer epitope” value in data set [1] is on record as “display the globulomer epitope”.

Turning to “Thermolysin truncation of [(17C, 34C) Aβ(16-35)-amide, cyclic] oligomer [example 5o]”, the “change in affinity” value in data set [1] is listed as “expected increase in affinity”. For “(17K, 34C) N-Met Aβ(1-42) oligomer [example 3w]”, the “display of the globulomer epitope” value in data set [1] is on record as “display the globulomer epitope”. Same read-out and setting: with “(17C(ACM), 34C(ACM)) Aβ(16-35) oligomer (KC(Acm)VFFAEDVGSNKGAIIGC(Acm)M; also: oligomer; UniProt P05067 687-706, looked up, variant L17C L34C) [3l]” the entry was “not able to form oligomers that displayed the globulomer epitope”; with “Disulfide-stabilized (17C, 34C) Aβ(16-42) oligomer (KCVFFAEDVGSNKGAIIGCMVGGVVIA-OH; disulfide 2-19; also: oligomer; UniProt P05067 687-713, looked up, variant L17C L34C) [example 4s]”, “displayed the globulomer epitope”. On to “SIAB-linked (17K, 34C) N-Met Aβ(1-42) oligomer [example 4w3]”, for which, in data set [1], the “reactivity of cross-linked oligomers” value is “still display the appropriate reactivity” and the “change in affinity” value is given as “expected increase in affinity”. In the same order, the values of “EDC/NHS-linked (17K, 34E) N-Met Aβ(1-42) oligomer [example 4x]” are “still display the appropriate reactivity” and “expected increase in affinity”. Regarding “Disulfide-stabilized (17C, 34C) Aβ(12-42) oligomer (VHHQKCVFFAEDVGSNKGAIIGCMVGGVVIA; disulfide 6-23; also: oligomer; UniProt P05067 683-713, looked up, variant L17C L34C) [example 4k]”, the “display of the globulomer epitope” value in data set [1] was “displayed the globulomer epitope”. “SMCC-linked (17K, 34C) N-Met Aβ(1-42) oligomer [example 4w1]”: in data set [1], the “reactivity of cross-linked oligomers” value is on record as “still display the appropriate reactivity” and the “change in affinity” value was “expected increase in affinity”.
